{"source": "patent US5821084A", "about": "“Osteoblast-testicular protein tyrosine phosphatase” (The Regents of the University of Michigan, priority 1994, dated 1998)", "key": {"UMR106 cells": {"tested_on": "UMR106 cells", "settings": "cited from earlier work"}, "OST-PTP mRNA": {"tested_on": "OST-PTP mRNA", "type": "cell-based, rat", "excerpt": "Poly A^+ RNA was extracted from an array of adult rat tissues: uterus, ovary, testis, kidney, heart, liver, lung, spleen, brain, skeletal muscle, smooth muscle, pancreas and retina. Poly A^+ RNA derived from UMR106 was used as a standard to control for expression in bone. […] RNA fractionated in such gels was transferred to Magnagraph nylon membrane (MSI) in 20× SSC by capillary action method. Two different types of probe; riboprobe (RNA) or random primed cDNA probe, were used depending on the experiment. […] All DNA probes were labeled with ^32 P-a (3000 Ci/mM) by the Random Primers DNA labeling kit using manufacturer's recommended conditions (GibcoBRL Life Technologies). […] For hybridizations, 10^6 cpms/ml probe was added. Following hybridization, the blots were washed twice at room temperature in 1× SSC+0.1% SDS (30 minutes per wash), and then washed twice in 0.1× SSC+0.1% SDS (30 minutes per wash) once at room temperature and once at 68° C. The prehybridization/hybridization conditions for the DNA probes were the same as described above except the temperature was lowered to 43° C. […] The washes were done as described above. The results were visualized either by autoradiography or by scanning with a phosphorimager (Molecular Dynamics). All quantifications were normalized against the amount of cyclophilin message which was considered to be standard for any given conditions.\nParathyroid hormone is an important bone hormone. […] The UMR106 cells were cultured as described above until confluence. The cells were then washed twice in phosphate buffered saline followed by incubation for 5 hours at 37° C. in serum free DMEM. After serum deprivation, 100 nM parathyroid hormone (PTH) was added to the cultures and incubation continued for 4, 8, 12, and 16 hours at 37° C. RNA was then isolated from the cells as described above."}, "[1]": {"tested_on": "other two novel PTPase clones", "test": "Northern blot of other novel PTPase clones in PTH-treated UMR106 cells", "type": "cell-based, rat", "settings": "PTH treatment", "procedure": "RNA was analyzed by Northern blot hybridization to determine the tissue specificity of the OST-PTP clone. Poly A^+ RNA was extracted from an array of adult rat tissues: uterus, ovary, testis, kidney, heart, liver, lung, spleen, brain, skeletal muscle, smooth muscle, pancreas and retina. Poly A^+ RNA derived from UMR106 was used as a standard to control for expression in bone. The RNA preparations were quantitated by absorbance at 260 nm and, depending on the message abundance, either total cellular RNA or poly A+ RNA was electrophoretically separated in a 6.6% formaldehyde-1%agarose gel. RNA fractionated in such gels was transferred to Magnagraph nylon membrane (MSI) in 20× SSC by capillary action method. Two different types of probe; riboprobe (RNA) or random primed cDNA probe, were used depending on the experiment. The riboprobe used for hybridization corresponded to the extracellular domain of OST-PTP, and was labeled by in vitro transcription using ^32 P-a (3000 Ci/mM) as described by manufacturers (Promega). […] All quantifications were normalized against the amount of cyclophilin message which was considered to be standard for any given conditions. […]"}}}
{"substance": "parathyroid hormone [PTH]", "values": [{"measurement": "effect on cell proliferation and DNA synthesis", "setting": "UMR106 cells", "value": "inhibit cell proliferation, and DNA synthesis"}, {"measurement": "change of OST-PTP message at later time points", "setting": "OST-PTP mRNA; UMR106 cells, 100 nM PTH, later than 4 hours (8, 12, 16 hours)", "value": "further increases"}, {"measurement": "PTH concentration effective in increasing OST-PTP transcripts", "setting": "OST-PTP mRNA; UMR106 cells, 18 hours", "value": 1, "unit": "nM"}, {"measurement": "effect on OST-PTP transcripts of exposure for less than 4 hours", "setting": "OST-PTP mRNA; UMR106 cells, regardless of concentration (10 pM-100 nM)", "value": "no significant effect"}, {"measurement": "increase of PTP-OST (OST-PTP) message", "setting": "OST-PTP mRNA; umr106 cells, 4 h, 0.1 µM", "value": "≤ 5", "unit": "fold"}, {"measurement": "effect of PTH on the other two novel PTPase clones", "setting": "[1]", "value": "Neither of the other two novel PTPase clones were altered"}]}
